Converted amounts (≈) assume the structure as drawn.
Columns and labels:
[1] = system: CCRF-CEM; test: Tested for the ability to inhibit HIV-1 (IIIB) replication in CEM cells; format: functional, cell-based; settings: Homo sapiens
[2] = system: CCRF-CEM; test: Tested for the ability to inhibit HIV-2 (ROD) replication in CEM cells; format: functional, cell-based; settings: Homo sapiens
[3] = target: Human immunodeficiency virus type 1 reverse transcriptase (Human immunodeficiency virus 1, UniProt Q72547); test: Tested against HIV-1 reverse transcriptase (HIV-1 RT) with poly(rA)/(dT)12-18 as template and [methyl-3H]-dTTP as competing substrate; format: functional

| EC50 [1] | IC50 [3] | SMILES | EC50 [2] |
| --- | --- | --- | --- |
| > 50 µg/mL | – | Nc1nc(O)c2ncn([C@H]3CC(O)C(COP(=S)(S)OP(=O)(O)OP(=O)(O)O)O3)c2n1 (stereo not given in full) | > 50 µg/mL |
| 0.5 µg/mL (≈ 0.927 µM) | 940 nM | Cc1cn([C@H]2CC(N=[N+]=[N-])C(COP(=S)(S)OP(=O)(O)OP(=O)(O)O)O2)c(=O)[nH]c1=O (stereo not given in full) | – |
| > 50 µg/mL | – | Nc1nc(O)c2ncn(C3O[C@H](COP(=S)(S)OP(=O)(O)OP(=O)(O)O)[C@@H](O)[C@H]3O)c2n1 (stereo not given in full) | > 50 µg/mL |
| 42 µg/mL (≈ 77.9 µM) | – | Nc1ncnc2c1ncn2C1O[C@H](COP(=S)(S)OP(=O)(O)OP(=O)(O)O)[C@@H](O)[C@H]1O (stereo not given in full) | 116 µg/mL (≈ 215 µM) |
| – | 3 nM | Cc1cn([C@H]2C[C@H](N=[N+]=[N-])[C@@H](CO[P@](=O)(O)O[P@](=O)(O)OP(=O)(O)O)O2)c(=O)[nH]c1=O [ZIDOVUDINE TRIPHOSPHATE] | – |

| SMILES | EC50 [1] | IC50 [3] | EC50 [2] |
| --- | --- | --- | --- |
| Nc1ncnc2c1ncn2[C@H]1CC(O)C(COP(=S)(S)OP(=O)(O)OP(=O)(O)O)O1 (stereo not given in full) | 43 µg/mL (≈ 82.2 µM) | – | 50 µg/mL (≈ 95.5 µM) |
| Cc1cn([C@H]2CC(O)C(COP(=S)(S)OP(=O)(O)OP(=O)(O)O)O2)c(=O)[nH]c1=O (stereo not given in full) | > 50 µg/mL | – | > 50 µg/mL |
| Nc1ccn([C@H]2CC(O)C(COP(=S)(S)OP(=O)(O)OP(=O)(O)O)O2)c(=O)n1 (stereo not given in full) | 97 µg/mL (≈ 194 µM) | – | 123 µg/mL (≈ 246 µM) |

Source: ChEMBL document CHEMBL1127397, “The synthesis of nucleoside 5'-O-(1,1-dithiotriphosphates)” (J Med Chem, 1994)
